From US20240315247A1, “MICROBIOCIDAL QUINOLINE DIHYDRO-(THIAZINE)OXAZINE DERIVATIVES” (SYNGENTA CROP PROTECTION AG, priority 2020, published 2024)

Columns and labels:
[1] = tested on: Botryotinia fuckeliana (Botrytis cinerea); experiment: Botryotinia fuckeliana (Botrytis cinerea) / liquid culture (Gray mould); format: cell-based; conditions: growth inhibition photometrically 3-4 days after application, compared to untreated control
Protocol: (§1) Botryotinia Fuckeliana (Botrytis cinerea)/Liquid Culture (Gray Mould) Conidia of the fungus from cryogenic storage are directly mixed into nutrient broth (Vogels broth). After placing a (DMSO) solution of test compound into a microtiter plate (96-well format), the nutrient broth containing the fungal spores is added. The test plates are incubated at 24° C. and the inhibition of growth is determined photometrically 3-4 days after application.

[2] = tested on: Monographella nivalis (Microdochium nivale); experiment: Monographella nivalis (Microdochium nivale) / liquid culture (Foot rot cereals); format: cell-based; conditions: growth inhibition photometrically 4-5 days after application, compared to untreated control
Protocol: as §1, with “Monographella nivalis (Microdochium nivale)/Liquid” for “Botryotinia Fuckeliana (Botrytis cinerea)/Liquid”, “(Foot Rot Cereals)” for “(Gray Mould)”, “(PDB potato dextrose” for “(Vogels”, “4-5” for “3-4”

[3] = tested on: Glomerella lagenarium (Colletotrichum laqenarium); experiment: Glomerella lagenarium (Colletotrichum lagenarium) / liquid culture (Anthracnose); format: cell-based; conditions: growth inhibition photometrically 3-4 days after application, compared to untreated control
Protocol: as §1, with “Glomerella lagenarium (Colletotrichum laqenarium)/liquid culture (Anthracnose)” for “Botryotinia Fuckeliana (Botrytis cinerea)/Liquid Culture (Gray Mould)”, “(PDB potato dextrose” for “(Vogels”, “measured” for “determined”

SMILES: CC1(COc2ccc(C#N)cc2)CC(C)(C)OC(c2cnc3c(F)cccc3c2)=N1 (stereo not drawn) [E.01, 4-[[2-(8-fluoro-3-quinolyl)-4,6,6-trimethyl-5H-1,3-oxazin-4-yl]methoxy]benzonitrile]
- inhibition of growth at 20 ppm [1]: ≥ 80%
- inhibition of growth at 20 ppm [2]: ≥ 80%

SMILES: CC1(COc2ccc(Br)cc2Br)CC(C)(C)OC(c2cnc3c(F)cccc3c2)=N1 (stereo not drawn) [E.02, 4-[(2,4-dibromophenoxy)methyl]-2-(8-fluoro-3-quinolyl)-4,6,6-trimethyl-5H-1,3-oxazine]
- inhibition of growth at 20 ppm [1]: ≥ 80%
- inhibition of growth at 20 ppm [2]: ≥ 80%

SMILES: CC1(COc2ccc(Br)cc2)CC(C)(C)OC(c2cnc3c(F)cccc3c2)=N1 (stereo not drawn) [E.03, 4-[(4-bromophenoxy)methyl]-2-(8-fluoro-3-quinolyl)-4,6,6-trimethyl-5H-1,3-oxazine]
- inhibition of growth at 20 ppm [1]: ≥ 80%
- inhibition of growth at 20 ppm [3]: ≥ 80%
- inhibition of growth at 20 ppm [2]: ≥ 80%

SMILES: CC1(COc2ccc(F)cc2)CC(C)(C)OC(c2cnc3c(F)cccc3c2)=N1 (stereo not drawn) [E.04, 4-[(4-fluorophenoxy)methyl]-2-(8-fluoro-3-quinolyl)-4,6,6-trimethyl-5H-1,3-oxazine]
- inhibition of growth at 20 ppm [1]: ≥ 80%
- inhibition of growth at 20 ppm [3]: ≥ 80%
- inhibition of growth at 20 ppm [2]: ≥ 80%

SMILES: Cc1nc2c(F)c(F)ccc2cc1C1=NC(C)(COc2ccccc2)CC(C)(C)O1 (stereo not drawn) [E.05, 2-(7,8-difluoro-2-methyl-3-quinolyl)-4,6,6-trimethyl-4-(phenoxymethyl)-5H-1,3-oxazine]
- inhibition of growth at 20 ppm [1]: ≥ 80%
- inhibition of growth at 20 ppm [2]: ≥ 80%

SMILES: CC1(COc2ccccc2)CC(C)(C)OC(c2cnc3c(F)c(F)ccc3c2)=N1 (stereo not drawn) [E.06, 2-(7,8-difluoro-3-quinolyl)-4,6,6-trimethyl-4-(phenoxymethyl)-5H-1,3-oxazine]
- inhibition of growth at 20 ppm [1]: ≥ 80%
- inhibition of growth at 20 ppm [2]: ≥ 80%
- melting point: 105 to 107 °C

SMILES: CC1(C)CC(COc2ccccc2)N=C(c2cnc3c(F)c(F)ccc3c2)O1 (stereo not drawn) [E.07, 2-(7,8-difluoro-3-quinolyl)-6,6-dimethyl-4-(phenoxymethyl)-4,5-dihydro-1,3-oxazine]
- inhibition of growth at 20 ppm [1]: ≥ 80%
- inhibition of growth at 20 ppm [2]: ≥ 80%

SMILES: CC1(COc2ccccc2)CC(C)(C)OC(c2cnc3c(F)cccc3c2)=N1 (stereo not drawn) [E.08, 2-(8-fluoro-3-quinolyl)-4,6,6-trimethyl-4-(phenoxymethyl)-5H-1,3-oxazine]
- inhibition of growth at 20 ppm [1]: ≥ 80%
- inhibition of growth at 20 ppm [3]: ≥ 80%
- inhibition of growth at 20 ppm [2]: ≥ 80%

SMILES: CC1(C)CC(CC(F)(F)F)N=C(c2cnc3c(F)c(F)ccc3c2)O1 (stereo not drawn) [E.09, 2-(7,8-difluoro-3-quinolyl)-6,6-dimethyl-4-(2,2,2-trifluoroethyl)-4,5-dihydro-1,3-oxazine]
- inhibition of growth at 20 ppm [2]: ≥ 80%
- melting point: 146 to 148 °C

SMILES: CC1(C)CC(CCC(F)(F)F)N=C(c2cnc3c(F)c(F)ccc3c2)O1 (stereo not drawn) [E.010, 2-(7,8-difluoro-3-quinolyl)-6,6-dimethyl-4-(3,3,3-trifluoropropyl)-4,5-dihydro-1,3-oxazine]
- inhibition of growth at 20 ppm [1]: ≥ 80%
- inhibition of growth at 20 ppm [2]: ≥ 80%

SMILES: CC(C)(C)CC1CC(C)(C)OC(c2cnc3c(F)c(F)ccc3c2)=N1 (stereo not drawn) [E.011, 2-(7,8-difluoro-3-quinolyl)-4-(2,2-dimethylpropyl)-6,6-dimethyl-4,5-dihydro-1,3-oxazine]
- inhibition of growth at 20 ppm [1]: ≥ 80%
- inhibition of growth at 20 ppm [2]: ≥ 80%
- melting point: 112 to 113 °C

SMILES: CC(C)CC1CC(C)(C)OC(c2cnc3c(F)c(F)ccc3c2)=N1 (stereo not drawn) [E.012, 2-(7,8-difluoro-3-quinolyl)-4-isobutyl-6,6-dimethyl-4,5-dihydro-1,3-oxazine]
- inhibition of growth at 20 ppm [1]: ≥ 80%
- inhibition of growth at 20 ppm [3]: ≥ 80%
- inhibition of growth at 20 ppm [2]: ≥ 80%

SMILES: CC(C)CC1(C)CC(C)(C)OC(c2cnc3c(F)cccc3c2)=N1 (stereo not drawn) [E.013, 2-(8-fluoro-3-quinolyl)-4-isobutyl-4,6,6-trimethyl-5H-1,3-oxazine]
- inhibition of growth at 20 ppm [1]: ≥ 80%
- inhibition of growth at 20 ppm [3]: ≥ 80%
- inhibition of growth at 20 ppm [2]: ≥ 80%

SMILES: CC(C)CC1(C)CC(C)(C)OC(c2cnc3c(F)c(F)ccc3c2)=N1 (stereo not drawn) [E.014, 2-(7,8-difluoro-3-quinolyl)-4-isobutyl-4,6,6-trimethyl-5H-1,3-oxazine]
- inhibition of growth at 20 ppm [1]: ≥ 80%
- inhibition of growth at 20 ppm [3]: ≥ 80%
- inhibition of growth at 20 ppm [2]: ≥ 80%

SMILES: CC1(CC2CCCCC2)CC(C)(C)OC(c2cnc3c(F)c(F)ccc3c2)=N1 (stereo not drawn) [E.015, 4-(cyclohexylmethyl)-2-(7,8-difluoro-3-quinolyl)-4,6,6-trimethyl-5H-1,3-oxazine]
- inhibition of growth at 20 ppm [1]: ≥ 80%
- inhibition of growth at 20 ppm [3]: ≥ 80%
- inhibition of growth at 20 ppm [2]: ≥ 80%

SMILES: C=C(C)CC1(C)CC(C)(C)OC(c2cnc3c(F)c(F)ccc3c2)=N1 (stereo not drawn) [E.016, 2-(7,8-difluoro-3-quinolyl)-4,6,6-trimethyl-4-(2-methylallyl)-5H-1,3-oxazine]
- inhibition of growth at 20 ppm [1]: ≥ 80%
- inhibition of growth at 20 ppm [3]: ≥ 80%
- inhibition of growth at 20 ppm [2]: ≥ 80%

SMILES: CC(C)CC1(C)CC(C)(C(C)C)OC(c2cnc3c(F)cccc3c2)=N1 (stereo not drawn) [E.017, 2-(8-fluoro-3-quinolyl)-4-isobutyl-6-isopropyl-4,6-dimethyl-5H-1,3-oxazine]
- inhibition of growth at 20 ppm [1]: ≥ 80%
- inhibition of growth at 20 ppm [3]: ≥ 80%
- inhibition of growth at 20 ppm [2]: ≥ 80%

SMILES: CCC1(C)CC(C)(CC(C)C)N=C(c2cnc3c(F)cccc3c2)O1 (stereo not drawn) [E.018, 6-ethyl-2-(8-fluoro-3-quinolyl)-4-isobutyl-4,6-dimethyl-5H-1,3-oxazine]
- inhibition of growth at 20 ppm [1]: ≥ 80%
- inhibition of growth at 20 ppm [3]: ≥ 80%
- inhibition of growth at 20 ppm [2]: ≥ 80%

SMILES: C=C(C)CC1(C)CC(C)(C)OC(c2cnc3c(F)cccc3c2)=N1 (stereo not drawn) [E.019, 2-(8-fluoro-3-quinolyl)-4,6,6-trimethyl-4-(2-methylallyl)-5H-1,3-oxazine]
- inhibition of growth at 20 ppm [1]: ≥ 80%
- inhibition of growth at 20 ppm [3]: ≥ 80%
- inhibition of growth at 20 ppm [2]: ≥ 80%

SMILES: C=C(C)CC1(CC)CC(C)(C)OC(c2cnc3c(F)cccc3c2)=N1 (stereo not drawn) [E.020, 4-ethyl-2-(8-fluoro-3-quinolyl)-6,6-dimethyl-4-(2-methylallyl)-5H-1,3-oxazine]
- inhibition of growth at 20 ppm [1]: ≥ 80%
- inhibition of growth at 20 ppm [3]: ≥ 80%
- inhibition of growth at 20 ppm [2]: ≥ 80%
